Reference: ChEMBL document CHEMBL3621196, “Quinazolinedione SIRT6 inhibitors sensitize cancer cells to chemotherapeutics” (Eur J Med Chem, 2015)
One block for each compound: values may come before it. Activity calls are given as the source filed them. The rule behind the calls is not given here.

What was measured:
[1] = biological target: T1, NAD-dependent protein deacylase sirtuin-6 (Homo sapiens, UniProt Q8N6T7); assay: Inhibition of human recombinant SIRT6 deacetylase activity using Arg-His-Lys-Lys(AC)-AMC as a substrate by […] assay
[2] = biological target: T1, NAD-dependent protein deacylase sirtuin-6; assay: Inhibition of human SIRT6 deacetylase activity using Arg-His-Lys-Lys(AC)-AMC as a substrate by fluorescence assay
[3] = test system: CAPAN-1; assay: Induction of DNA damage in human BRCA2-deficient Capan1 cells assessed as increase in gammaH2AX levels at 8 uM after 24 hrs by confocal microscopy; type: functional, cell-based
[4] = test system: CAPAN-1; assay: Induction of DNA damage in human BRCA2-deficient Capan1 cells assessed as increase in gammaH2AX levels at 8 uM after 24 hrs by flow cytometry analysis; type: functional, cell-based
[5] = test system: CAPAN-1; assay: Induction of DNA damage in human BRCA2-deficient Capan1 cells assessed as increase in gammaH2AX levels at 100 uM after 24 hrs by confocal microscopy; type: functional, cell-based
[6] = biological target: T1, NAD-dependent protein deacylase sirtuin-6; assay: Inhibition of SIRT6 in human BxPC3 cells assessed as reduction in TNF alpha production by ELISA; type: cell-based; settings: BXPC-3, concentration not given here
[7] = biological target: T1, NAD-dependent protein deacylase sirtuin-6; assay: Inhibition of human SIRT6 in BRCA2-deficient Capan1 cells assessed as potentiation of olaparib-induced DNA damage by measuring gammaH2AX levels at 100 uM after 24 hrs by flow cytometry analysis; type: cell-based; settings: CAPAN-1
[8] = biological target: T1, NAD-dependent protein deacylase sirtuin-6; assay: Inhibition of human SIRT6 in BRCA2-deficient Capan1 cells assessed as potentiation of olaparib-induced DNA damage by measuring cell viability at 100 uM after 7 days by CellTiter96 Aqueous1 assay; type: cell-based; settings: CAPAN-1
[9] = biological target: T1, NAD-dependent protein deacylase sirtuin-6; assay: Competitive inhibition of human recombinant SIRT6 deacetylase activity using NAD+ as a substrate at 50 uM by double-reciprocal plot analysis
[10] = species: Homo sapiens; assay: Selectivity ratio of IC50 for human SIRT2 to IC50 for human SIRT6
[11] = species: Homo sapiens; assay: Selectivity ratio of IC50 for human SIRT1 to IC50 for human SIRT6
[12] = biological target: T1, NAD-dependent protein deacylase sirtuin-6; assay: Inhibition of human SIRT6 in BRCA2-deficient Capan1 cells assessed as potentiation of olaparib-induced DNA damage by measuring gammaH2AX levels at 100 uM after 24 hrs by confocal microscopy; type: cell-based; settings: CAPAN-1
[13] = biological target: T1, NAD-dependent protein deacylase sirtuin-6; assay: Inhibition of SIRT6 in human BxPC-3 cells assessed as increase in radiolabelled glucose uptake at 100 uM after 18 hrs by fluorescence plate reader relative to control; type: cell-based
[14] = biological target: T1, NAD-dependent protein deacylase sirtuin-6; assay: Inhibition of SIRT6 in human BxPC-3 cells assessed as increase in H3K9 acetylation by immunoblotting assay relative to control; type: cell-based
[15] = biological target: T1, NAD-dependent protein deacylase sirtuin-6; assay: Inhibition of SIRT6 in human PBMC assessed as inhibition of MLR-induced TNF alpha production at 200 uM after 3 days by ELISA
[16] = biological target: T1, NAD-dependent protein deacylase sirtuin-6; assay: Inhibition of SIRT6 in human PBMC assessed as inhibition of PHA-induced TNF alpha production at 200 uM after 3 days by ELISA
[17] = biological target: Protein Sirt6 (Rattus norvegicus) (UniProt A6K863); assay: Inhibition of SIRT6 in rat L6 cells assessed as increase in radiolabelled glucose uptake at 100 uM after 18 hrs by fluorescence plate reader relative to control; type: cell-based
[18] = biological target: T1, NAD-dependent protein deacylase sirtuin-6; assay: Inhibition of human SIRT6 in […] Capan1 cells assessed as potentiation of NU1025-induced cytotoxicity by measuring cell viability at 100 uM after 7 days by CellTiter96 Aqueous1 assay; type: cell-based; settings: CAPAN-1
[19] = Cytotoxicity against human HEK293 cells assessed as cell viability using propidium iodide by flow cytometry; type: cell-based; settings: read-out: Activity
[20] = test system: CAPAN-1; assay: Induction of DNA damage in human BRCA2-deficient Capan1 cells assessed as increase in gammaH2AX levels at 100 uM after 24 hrs by flow cytometry analysis; type: functional, cell-based
[21] = biological target: Protein Sirt6 (Rattus norvegicus) (UniProt A6K863); assay: Inhibition of SIRT6 in rat L6 cells assessed as increase in 2-NBDG uptake at 100 uM after 18 hrs by fluorescence plate reader relative to control; type: cell-based
[22] = biological target: T1, NAD-dependent protein deacylase sirtuin-6; assay: Competitive inhibition of human recombinant SIRT6 deacetylase activity using Arg-His-Lys-Lys(AC)-AMC as a substrate at 50 uM by double-reciprocal plot analysis
[23] = biological target: T1, NAD-dependent protein deacylase sirtuin-6; assay: Inhibition of SIRT6 in human PBMC assessed as inhibition of MLR-induced TNF alpha production at 100 uM after 3 days by ELISA
[24] = Cytotoxicity against human BxPC3 cells assessed as cell viability at 30 uM after 72 hrs by CellTiter96 Aqueous1 assay; type: cell-based, BXPC-3; settings: for Activity: bxpc-3, 72 h, 30 µM
[25] = biological target: T1, NAD-dependent protein deacylase sirtuin-6; assay: Inhibition of SIRT6 in human BxPC3 cells assessed as potentiation of gemcitabine-induced cytotoxicity by measuring cell viability at 30 uM by CellTiter96 Aqueous1 assay; type: cell-based; settings: BXPC-3
[26] = biological target: T1, NAD-dependent protein deacylase sirtuin-6; assay: Inhibition of SIRT6 in human PBMC assessed as inhibition of PHA-induced TNF alpha production at 100 uM after 3 days by ELISA
[27] = biological target: T2, NAD-dependent protein deacetylase sirtuin-1 (Homo sapiens, UniProt Q96EB6); assay: Inhibition of human SIRT1 deacetylase activity using Arg-His-Lys-Lys(AC)-AMC as a substrate by fluorescence assay
T2 sequence (Q96EB6 whole entry): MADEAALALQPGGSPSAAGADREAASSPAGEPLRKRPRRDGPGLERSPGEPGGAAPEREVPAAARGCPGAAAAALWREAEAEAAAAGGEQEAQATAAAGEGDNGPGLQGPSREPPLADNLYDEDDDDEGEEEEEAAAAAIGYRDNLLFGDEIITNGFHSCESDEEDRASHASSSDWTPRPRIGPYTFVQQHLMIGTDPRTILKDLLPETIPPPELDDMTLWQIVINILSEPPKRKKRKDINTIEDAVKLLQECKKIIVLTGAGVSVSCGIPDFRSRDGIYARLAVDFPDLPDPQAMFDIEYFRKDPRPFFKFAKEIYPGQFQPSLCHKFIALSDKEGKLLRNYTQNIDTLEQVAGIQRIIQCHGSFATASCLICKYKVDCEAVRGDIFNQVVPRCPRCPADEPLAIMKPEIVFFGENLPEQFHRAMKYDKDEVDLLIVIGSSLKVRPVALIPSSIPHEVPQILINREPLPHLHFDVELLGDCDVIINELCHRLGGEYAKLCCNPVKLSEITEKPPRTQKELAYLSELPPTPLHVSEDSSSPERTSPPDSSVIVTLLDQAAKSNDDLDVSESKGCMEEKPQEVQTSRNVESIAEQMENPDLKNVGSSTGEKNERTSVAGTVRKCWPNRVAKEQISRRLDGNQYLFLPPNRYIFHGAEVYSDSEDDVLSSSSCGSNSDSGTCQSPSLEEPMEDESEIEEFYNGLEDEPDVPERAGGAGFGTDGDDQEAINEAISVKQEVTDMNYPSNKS

[28] = biological target: T3, NAD-dependent protein deacetylase sirtuin-2 (Homo sapiens, UniProt Q8IXJ6); assay: Inhibition of human SIRT2 deacetylase activity using Arg-His-Lys-Lys(AC)-AMC as a substrate by fluorescence assay
T3 sequence (Q8IXJ6 whole entry): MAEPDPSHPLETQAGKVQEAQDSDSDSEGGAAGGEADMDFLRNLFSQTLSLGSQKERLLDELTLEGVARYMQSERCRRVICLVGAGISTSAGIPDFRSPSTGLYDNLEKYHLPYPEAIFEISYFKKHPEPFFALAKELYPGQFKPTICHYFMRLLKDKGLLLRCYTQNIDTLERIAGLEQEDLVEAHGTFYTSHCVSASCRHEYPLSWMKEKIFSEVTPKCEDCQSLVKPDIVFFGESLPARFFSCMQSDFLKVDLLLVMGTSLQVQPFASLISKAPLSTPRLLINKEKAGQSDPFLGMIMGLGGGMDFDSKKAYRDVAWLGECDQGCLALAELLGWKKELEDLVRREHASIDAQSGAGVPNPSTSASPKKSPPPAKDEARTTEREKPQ

T1 sequence (Q8N6T7 whole entry): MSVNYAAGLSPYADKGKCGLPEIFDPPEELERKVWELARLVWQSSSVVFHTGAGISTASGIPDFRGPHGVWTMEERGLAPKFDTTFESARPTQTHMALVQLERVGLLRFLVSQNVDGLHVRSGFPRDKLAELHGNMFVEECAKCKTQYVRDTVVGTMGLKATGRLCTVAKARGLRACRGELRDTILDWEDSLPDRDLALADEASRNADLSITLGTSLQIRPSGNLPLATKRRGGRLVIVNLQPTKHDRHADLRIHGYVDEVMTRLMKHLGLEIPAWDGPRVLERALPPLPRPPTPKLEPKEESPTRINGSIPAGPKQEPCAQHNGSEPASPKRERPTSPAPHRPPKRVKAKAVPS
Sequence of Protein Sirt6 (Rattus norvegicus) (A6K863 as listed by the source): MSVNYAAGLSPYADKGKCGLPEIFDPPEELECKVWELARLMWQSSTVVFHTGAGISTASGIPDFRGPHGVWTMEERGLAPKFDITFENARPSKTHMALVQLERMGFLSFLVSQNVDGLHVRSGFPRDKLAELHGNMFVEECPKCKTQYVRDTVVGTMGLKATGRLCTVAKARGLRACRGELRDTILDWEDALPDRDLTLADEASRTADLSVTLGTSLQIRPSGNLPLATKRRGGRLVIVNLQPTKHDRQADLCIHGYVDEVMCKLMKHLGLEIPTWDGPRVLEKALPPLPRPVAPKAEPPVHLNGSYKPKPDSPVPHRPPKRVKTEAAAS

Compound: O=C1CCc2cc(S(=O)(=O)Nc3ccc(Oc4cccnc4)cc3)ccc2N1
IC50 [1]: 275 µM | IC50 [2]: 270 µM

Compound: O=C1CCCN1c1ccc(S(=O)(=O)Nc2ccc(Oc3cccnc3)cc2)cc1
IC50 [2]: 441 µM

Compound: O=c1[nH]c(=O)c2cc(S(=O)(=O)NCc3cccc(Cn4ccnc4)c3)ccc2[nH]1
IC50 [1]: 2870 µM

Compound: O=C(c1cc(Cc2n[nH]c(=O)c3ccccc23)ccc1F)N1CCN(C(=O)C2CC2)CC1
Activity [3]: Active | Activity [4]: Active

Compound: O=c1[nH]c(=O)c2cc(S(=O)(=O)NC3CCN(Cc4ccccc4)C3)ccc2[nH]1 (centres undefined)
IC50 [1]: 517 µM

Compound: O=S(=O)(Nc1ccc(Oc2cccnc2)cc1)c1ccccc1
IC50 [1]: 300 µM

Compound: O=c1[nH]c(=O)c2cc(S(=O)(=O)Nc3ccc(Cn4ccnc4)cc3)ccc2[nH]1
inhibition [23]: 21% | Activity [24]: Non-toxic | Activity [25]: Active | inhibition [6]: 25% | Ratio IC50 [10]: 2.65 | Ratio IC50 [11]: 3.97 | fold increase in glucose uptake [13]: 0.6 fold | fold increase in H3K9 acetylation [14]: 1.5 fold | inhibition [26]: 31% | IC50 [2]: 60 µM | IC50 [27]: 238 µM | fold increase in glucose uptake [17]: 0.8 fold | Activity [18]: Active | IC50 [28]: 159 µM | viability [19]: > 80% | fold increase in 2-NBDG uptake [21]: 0.7 fold

Now from value to compound, other results behind:

IC50 [1]: 127 µM
Compound: O=c1[nH]c(=O)c2cc(S(=O)(=O)Nc3ccc(Oc4ccccc4)cc3)ccc2[nH]1

IC50 [1]: 242 µM | IC50 [2]: 297 µM
Compound: CC(=O)Nc1ccc(S(=O)(=O)Nc2ccc(Oc3cccnc3)cc2)cc1

IC50 [1]: 102 µM | IC50 [2]: 77 µM
Compound: Cn1c(=O)sc2cc(S(=O)(=O)Nc3ccc(Oc4cccnc4)cc3)ccc21

IC50 [1]: 136 µM | inhibition [6]: 73% | inhibition [9]: Active | Ratio IC50 [10]: 1.07 | Ratio IC50 [11]: 2.96 | fold increase in glucose uptake [13]: 1.3 fold | fold increase in H3K9 acetylation [14]: 2.2 fold | inhibition [15]: 47% | inhibition [16]: 52% | fold increase in glucose uptake [17]: 2 fold | fold increase in 2-NBDG uptake [21]: 2.4 fold | inhibition [22]: Active
Compound: O=c1[nH]c(=O)c2cc(S(=O)(=O)Nc3ccc(Oc4cccnc4)cc3)ccc2[nH]1
Activity [5]: Active | Activity [7]: Active | Activity [8]: Active | Activity [12]: Active | Activity [18]: Active | viability [19]: > 50% | Activity [20]: Active

IC50 [1]: 137 µM | IC50 [2]: 137 µM
Compound: O=c1[nH]c(=O)c2cc(S(=O)(=O)Nc3ccccc3-c3ccccc3)ccc2[nH]1

inhibition [23]: 27% | IC50 [1]: 55 µM | inhibition [6]: 72% | inhibition [9]: Active | Ratio IC50 [10]: 2.3 | Ratio IC50 [11]: 11.5 | fold increase in glucose uptake [13]: 1.2 fold | fold increase in H3K9 acetylation [14]: 1.4 fold | inhibition [26]: 44% | IC50 [2]: 37 µM | IC50 [27]: 424 µM | fold increase in glucose uptake [17]: 2.8 fold | IC50 [28]: 85 µM | fold increase in 2-NBDG uptake [21]: 1 fold | inhibition [22]: Active
Compound: O=c1[nH]c(=O)c2cc(S(=O)(=O)Nc3cccc(CCc4ccncc4)c3)ccc2[nH]1
Activity [24]: Non-toxic | Activity [25]: Active | Activity [8]: Active | Activity [18]: Active | viability [19]: > 80%

IC50 [1]: 38 µM | inhibition [9]: Active | Ratio IC50 [10]: 4.94 | Ratio IC50 [11]: 133 | fold increase in glucose uptake [13]: 1.9 fold | fold increase in H3K9 acetylation [14]: 1.6 fold | IC50 [2]: 49 µM | IC50 [27]: 6520 µM | fold increase in glucose uptake [17]: 4 fold | IC50 [28]: 242 µM | fold increase in 2-NBDG uptake [21]: 3.1 fold | inhibition [22]: Active
Compound: Cn1c(=O)c2cc(S(=O)(=O)Nc3ccc(Cc4ccncc4)cc3)ccc2n(C)c1=O
viability at 72 h, 30 µM ([24]; BxPC3 cells, read-out: Activity): 75%

IC50 [1]: 82 µM
Compound: Cn1ccc2cc(NS(=O)(=O)c3ccc4[nH]c(=O)[nH]c(=O)c4c3)ccc21
